Data on 29 molecules can be found in patent publication US7868204B2, “Inhibitors of histone deacetylase” (MethylGene Inc., priority 2001, dated 2011).

Read-outs that look alike come from different tables or passages of the source. Some results are limits rather than exact numbers.

For one test, the system named is HCT116 cells. Kind of test: MTT assay. It counts as cell-based. Conditions: Homo sapiens, HCT116 cells, 72 hours. The method, boiled down:
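Cells plated one day before dosing, then exposed to compound 72 h at 37 °C, 5% CO2. MTT at 0.5 mg/ml final for 4 h, solubilized in DMF/SDS buffer pH 4.7; OD converted to cell number from a standard growth curve.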
(In general: Tetrazolium dyes change colour on reduction, which living cells bring about.)

Test [1] deals with T1, cloned recombinant human HDAC-1 (Homo sapiens, UniProt Q13547).
T1 construct: made in house; host or cells: Baculovirus insect cell expression system
Kind of test: Human HDAC-1 enzyme inhibition, Assay 1 ([3H]-acetylated histone substrate, scintillation counting). It counts as biochemical. The method, boiled down: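 Recombinant human HDAC-1 from baculovirus-infected insect cells, preincubated with compound 30 min at 4° C. before reaction. Released [3H]-acetic acid extracted with ethyl acetate and counted by scintillation. IC50 taken from dose-response curves as concentration giving half-maximal inhibition.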

The mark [2] stands for this setting: Table 5d, read-out: HDAC-1 IC50.
Where [3] appears, read: Table 5F, read-out: Human HDAC-1 IC50.

T1 sequence (Q13547 whole entry): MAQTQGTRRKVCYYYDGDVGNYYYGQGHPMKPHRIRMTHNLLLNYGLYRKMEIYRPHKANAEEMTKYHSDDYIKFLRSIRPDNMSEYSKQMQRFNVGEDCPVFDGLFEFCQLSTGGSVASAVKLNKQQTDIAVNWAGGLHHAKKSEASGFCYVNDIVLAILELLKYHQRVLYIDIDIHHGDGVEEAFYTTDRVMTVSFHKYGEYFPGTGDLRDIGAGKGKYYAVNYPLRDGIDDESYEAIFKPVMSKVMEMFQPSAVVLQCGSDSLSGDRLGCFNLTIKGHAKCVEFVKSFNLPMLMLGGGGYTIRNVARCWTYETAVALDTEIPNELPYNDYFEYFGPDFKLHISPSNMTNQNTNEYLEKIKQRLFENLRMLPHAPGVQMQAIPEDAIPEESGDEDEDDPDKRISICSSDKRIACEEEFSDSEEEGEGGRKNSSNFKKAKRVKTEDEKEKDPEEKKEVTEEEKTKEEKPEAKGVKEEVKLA

The IC50 is the concentration that inhibits the measured activity by half. In the case of `Nc1ccccc1NC(=O)/C=C/c1ccc(CNc2ccc([N+](=O)[O-])cc2)cc1` [Cpd 550, N-(2-Amino-phenyl)-3-{4-[(4-nitro-phenylamino)-methyl]-phenyl}-acrylamide], the half-inhibitory concentration (IC50) in the test with HCT116 cells (HCT-116, Table 5d) worked out at 15 µM; in test [1] (setting [2]), 4 µM.

`Nc1ccccc1NC(=O)/C=C/c1ccc(CNc2cccc([N+](=O)[O-])c2)cc1` [Cpd 551, N-(2-Amino-phenyl)-3-{4-[(3-nitro-phenylamino)-methyl]-phenyl}-acrylamide]: the IC50 was 9 µM in the test with HCT116 cells (HCT-116, Table 5d) and 24 µM in test [1] (setting [2]).

Regarding `Nc1ccccc1NC(=O)/C=C/c1ccc(CNc2ccc(Cl)cc2)cc1` [Cpd 552, N-(2-Amino-phenyl)-3-{4-[(4-chloro-phenylamino)-methyl]-phenyl}-acrylamide], the IC50 in the test on HCT116 cells (HCT-116, Table 5d) came to 22 µM; in test [1] (setting [2]), 4 µM.

Consider `Nc1ccccc1NC(=O)/C=C/c1ccc(CNc2cccc(Cl)c2)cc1` [Cpd 553, N-(2-Amino-phenyl)-3-{4-[(3-chloro-phenylamino)-methyl]-phenyl}-acrylamide], for which the 50% inhibitory concentration (IC50) in the test with HCT116 cells (HCT-116, Table 5d) is 12 µM; in test [1] (setting [2]), 4 µM.

As for `Nc1ccccc1NC(=O)/C=C/c1ccc(CNc2ccc(F)cc2)cc1` [Cpd 554, N-(2-Amino-phenyl)-3-{4-[(4-fluoro-phenylamino)-methyl]-phenyl}-acrylamide], the 50% inhibitory concentration (IC50) in the test on HCT116 cells (HCT-116, Table 5d) came to 12 µM; in test [1] (setting [2]), 15 µM.

On to `CSc1cccc(NCc2ccc(/C=C/C(=O)Nc3ccccc3N)cc2)c1` [Cpd 555, N-(2-Amino-phenyl)-3-{4-[(3-methylsulfanyl-phenylamino)-methyl]-phenyl}-acrylamide], for which the IC50 was found to be 7 µM in the test on HCT116 cells (HCT-116, Table 5d) and 14 µM in test [1] (setting [2]).

Turning to `Nc1ccccc1NC(=O)/C=C/c1ccc(CNc2ccc(Br)cn2)cc1` [Cpd 557, N-(2-Amino-phenyl)-3-{4-[(5-bromo-pyridin-2-ylamino)-methyl]-phenyl}acrylamide], the 50% inhibitory concentration (IC50) was found to be 6 µM in the test on HCT116 cells (HCT-116, Table 5d) and 4 µM in test [1] (setting [2]).

As for `Nc1ccccc1NC(=O)/C=C/c1ccc(CNc2cccc3ccccc23)cc1` [Cpd 558, N-(2-Amino-phenyl)-3-[4-(naphthalen-1-ylaminomethyl)-phenyl]-acrylamide], the IC50 with HCT116 cells (HCT-116, Table 5d) came out at 10 µM; in test [1] (setting [2]), 7 µM.

For `Nc1ccccc1NC(=O)/C=C/c1ccc(CNc2cccc(F)c2)cc1` [Cpd 559, N-(2-Amino-phenyl)-3-{4-[(3-fluoro-phenylamino)-methyl]-phenyl}-acrylamide], the IC50 amounted to 11 µM in the test with HCT116 cells (HCT-116, Table 5d) and 4 µM in test [1] (setting [2]).

Take `COc1cc(/C=C/C(=O)Nc2ccccc2N)cc(OC)c1CNc1cc(OC)c(OC)c(OC)c1` [Cpd 560]: the IC50 in the test on HCT116 cells (HCT-116, Table 5d) is 6 µM; in test [1] (setting [2]), 21 µM.

For `COc1cc(NCc2ccc(/C=C/C(=O)Nc3cccc(O)c3N)cc2)cc(OC)c1OC` [Cpd 561], the IC50 in the test on HCT116 cells (HCT-116, Table 5d) is > 25 µM; in test [1] (setting [2]) it was > 25 µM.

In the case of `COc1ccc(NCc2ccc(/C=C/C(=O)Nc3ccccc3N)cc2)c(OC)c1OC` [Cpd 562, N-(2-Amino-phenyl)-3-[4-[(2,3,4-trimethoxy-phenylamino)-methyl]-phenyl}-acrylamide], the half-inhibitory concentration (IC50) is 5 µM in the test on HCT116 cells (HCT-116, Table 5d) and 5 µM in test [1] (setting [2]).

For `COc1ccc(NCc2ccc(/C=C/C(=O)Nc3ccccc3N)cc2)cc1CNc1cc(OC)c(OC)c(OC)c1` [Cpd 563, N-(2-Amino-phenyl)-3-[4-([4-methoxy-3-[(3,4,5-trimethoxy-phenylamino)-methyl]-phenylamino}-methyl)-phenyl]-acrylamide], the concentration for half-maximal inhibition (IC50) with HCT116 cells (HCT-116, Table 5d) amounted to 6 µM; in test [1] (setting [2]) it was 24 µM.

For `COc1cc(NCc2ccc(/C=C/C(=O)Nc3cccc(N)c3N)cc2)cc(OC)c1OC` [Cpd 564], the half-inhibitory concentration (IC50) in the test on HCT116 cells (HCT-116, Table 5d) was > 25 µM; in test [1] (setting [2]) it was > 25 µM.

For the molecule `CSc1ccc(NCc2ccc(/C=C/C(=O)Nc3ccccc3N)cc2)cc1F` [Cpd 565, N-(2-Amino-phenyl)-3-{4-[(3-fluoro4-methylsulfanyl-phenylamino)-methyl]-phenyl}-acrylamide], the half-maximal inhibitory concentration (IC50) in the test on HCT116 cells (HCT-116, Table 5d) came out at 17 µM; in test [1] (setting [2]), 5 µM.

As to `CSc1ccc(NCc2ccc(/C=C/C(=O)Nc3ccccc3N)cc2)cc1C(F)(F)F` [Cpd 566, N-(2-Amino-phenyl)-3-{4-[(4-methylsulfanyl-3-trifluoromethyl-phenylamino)-methyl]-phenyl]-acrylamide], the half-inhibitory concentration (IC50) in the test on HCT116 cells (HCT-116, Table 5d) was found to be 16 µM; in test [1] (setting [2]) it was 3 µM.

Regarding `COc1cc(NCc2ccc(/C=C/C(=O)Nc3ccccc3N)cc2[N+](=O)[O-])cc(OC)c1OC` [Cpd 567], the IC50 in the test with HCT116 cells (HCT-116, Table 5d) was found to be 3 µM; in test [1] (setting [2]) it was 13 µM.

Turning to `COc1cc(NCc2ccc(/C=C/C(=O)Nc3ccccc3N)cc2N)cc(OC)c1OC` [Cpd 568], the IC50 in the test on HCT116 cells (HCT-116, Table 5d) is 39 µM; in test [1] (setting [2]), > 25 µM.

As to `COc1ccc(-c2ccc(/C=C/C(=O)Nc3ccccc3N)cn2)cc1OC` [Cpd 569], the IC50 in the test with HCT116 cells (HCT-116, Table 5d) was 6 µM; in test [1] (setting [2]), 18 µM.

On to `COc1cc(NCc2ccc(C(=O)Nc3ccccc3N)cc2)cc(OC)c1OC` [Cpd 571], for which the half-inhibitory concentration (IC50) was 11 µM in the test on HCT116 cells (HCT-116, 72 h, Table 5F) and 4 µM in test [1] (setting [3]).

Consider `COc1ccc(CNc2ccc(C3CC3C(=O)Nc3ccccc3N)cn2)cc1` (stereo not shown) [Cpd 576], for which the 50% inhibitory concentration (IC50) in the test with HCT116 cells (HCT-116, 72 h, Table 5F) was 6 µM; in test [1] (setting [3]) it was 5 µM.

Take `CCN1C(=O)C(Cc2ccc(C(=O)Nc3ccccc3N)cc2)Oc2ccccc21` (stereo not shown) [compound 269, N-(2-Amino-phenyl)-4-(4-ethyl-3-oxo-3,4-dihydro-2H-benzo[1,4]oxazin-2-ylmethyl)-benzamide]: the IC50 in the test with HCT116 cells (HCT-116, 72 h, Table 5F) worked out at 4 µM; in test [1] (setting [3]), 9 µM.

Consider `Cc1nc(Cc2ccc(C(=O)Nc3ccccc3N)cc2)no1` [compound 284, N-(2-Amino-phenyl)-4-(5-methyl-[1,2,4]oxadiazol-3-ylmethyl)-benzamide], for which the IC50 in the test on HCT116 cells (HCT-116, 72 h, Table 5F) was 5 µM; in test [1] (setting [3]), 3 µM.

In the case of `Cc1cc(C)n(-c2ccc(C(=O)Nc3ccccc3N)cc2)n1` [compound 286, N-(2-Amino-phenyl)-4-(3,5-dimethyl-pyrazol-1-yl)-benzamide], the 50% inhibitory concentration (IC50) in the test with HCT116 cells (HCT-116, 72 h, Table 5F) came to 2 µM; in test [1] (setting [3]), 5 µM.

With `COc1cc(C2C=CC(c3ccc(C(=O)Nc4ccccc4N)cc3)O2)cc(OC)c1OC` (stereo not shown) [compound 289, N-(2-Amino-phenyl)-4-[5-(3,4,5-trimethoxy-phenyl)-2,5-dihydro-furan-2-yl]-benzamide], the IC50 with HCT116 cells (HCT-116, 72 h, Table 5F) is 5 µM; in test [1] (setting [3]), 17 µM.

For the molecule `COc1cc(C2CCC(c3ccc(C(=O)Nc4ccccc4N)cc3)O2)cc(OC)c1OC` (stereo not shown) [compound 290, N-(2-Amino-phenyl)-4-[5-(3,4,5-trimethoxy-phenyl)-tetrahydro-furan-2-yl]-benzamide], the IC50 came out at 3 µM with HCT116 cells (HCT-116, 72 h, Table 5F) and 11 µM in test [1] (setting [3]).

As for `COc1cc(N2C(=O)OCC2c2ccc(C(=O)Nc3ccccc3N)cc2)cc(OC)c1OC` (stereo not shown) [compound 296, N-(2-Amino-phenyl)-4-[2-oxo-3-(3,4,5-trimethoxy-phenyl)-oxazolidin-4-yl]-benzamide], the half-inhibitory concentration (IC50) in the test with HCT116 cells (HCT-116, 72 h, Table 5F) came out at 7 µM; in test [1] (setting [3]), 20 µM.

On to `COc1ccc(C2=NC(c3ccc(C(=O)Nc4ccccc4N)cc3)CO2)cc1OC` (stereo not shown) [compound 301, N-(2-Amino-phenyl)-4-[2-(3,4-dimethoxy-phenyl)-4,5-dihydro-oxazol-4-yl]-benzamide], for which the half-inhibitory concentration (IC50) in the test on HCT116 cells (HCT-116, 72 h, Table 5F) worked out at 3 µM; in test [1] (setting [3]), 3 µM.

On to `COc1ccc(C2=NCC(c3ccc(C(=O)Nc4ccccc4N)cc3)O2)cc1OC` (stereo not shown) [compound 305, N-(2-Amino-phenyl)-4-[2-(3,4-dimethoxy-phenyl)-4,5-dihydro-oxazol-5-yl]-benzamide], for which the half-maximal inhibitory concentration (IC50) worked out at 2 µM in the test with HCT116 cells (HCT-116, 72 h, Table 5F) and 4 µM in test [1] (setting [3]).
